Converted amounts (≈) assume the structure as drawn.
Experiments:
[1] = system: Staphylococcus aureus SA1199B; type: cell-based
Experimental: (§1) The MIC's were determined using a standard broth micro-dilution assay.

[2] = system: Staphylococcus aureus S13E; type: cell-based
Experimental: as §1

[3] = system: Staphylococcus aureus 446; experiment: broth micro-dilution MIC; type: cell-based
Experimental: as §1

[4] = system: Staphylococcus aureus X400; experiment: broth micro-dilution MIC; type: cell-based
Experimental: as §1

[5] = system: Staphylococcus aureus SA1199; experiment: broth micro-dilution MIC; type: cell-based
Experimental: as §1

Entercoccus faecium 276 = experiment: broth micro-dilution MIC; type: cell-based
Experimental: as §1

[6] = system: Staphylococcus aureus SA1199A; experiment: broth micro-dilution MIC; type: cell-based
Experimental: as §1

[7] = system: Staphylococcus aureus 491; experiment: broth micro-dilution MIC; type: cell-based
Experimental: as §1

[8] = system: Staphylococcus aureus X778; experiment: broth micro-dilution MIC; type: cell-based
Experimental: as §1

[9] = system: Staphylococcus aureus 489; experiment: broth micro-dilution MIC; type: cell-based
Experimental: as §1

[10] = system: Staphylococcus aureus 447; experiment: broth micro-dilution MIC; type: cell-based
Experimental: as §1

[11] = system: Streptococcus pyogenes C203; experiment: broth micro-dilution MIC; type: cell-based
Experimental: as §1

[12] = system: Entercoccus faecium 180-1; experiment: broth micro-dilution MIC; type: cell-based
Experimental: as §1

[13] = system: Haemophilus influenzae RD; experiment: broth micro-dilution MIC; type: cell-based; conditions: Haemophilus influenzae RD
Experimental: (§2) The formula I compounds have in vitro and in vivo activity against Gram-positive pathogenic bacteria. The MIC's were determined using a standard broth micro-dilution assay.

Escherichia coli EC14 = experiment: broth micro-dilution MIC; type: cell-based
Experimental: as §2

[14] = system: Streptococcus pneumoniae P1; experiment: broth micro-dilution MIC; type: cell-based
Experimental: as §2

[15] = system: Staphylococcus haemolyticus 415; experiment: broth micro-dilution MIC; type: cell-based
Experimental: as §2

[16] = system: Enterococcus gallinarum 245; experiment: broth micro-dilution MIC; type: cell-based; conditions: Enterococcus gallinarum 245
Experimental: as §2

Entercoccus faecium 2041 = experiment: broth micro-dilution MIC; type: cell-based; conditions: Entercoccus faecium 2041
Experimental: as §2

[17] = system: Staphylococcus epidermidis 270; experiment: broth micro-dilution MIC; type: cell-based
Experimental: as §2

[18] = system: Staphylococcus haemolyticus 105; experiment: broth micro-dilution MIC; type: cell-based
Experimental: as §2

Entercoccus faecium 180 = experiment: broth micro-dilution MIC; type: cell-based; conditions: Entercoccus faecium 180
Experimental: as §2

[19] = system: vancomycin-susceptible enterococci; experiment: broth micro-dilution, mean geometric MIC; type: cell-based, Enterococcus faecium and Enterococcus faecalis; conditions: enterococci, 24-hour incubation
[20] = system: vancomycin-resistant enterococci; experiment: broth micro-dilution, mean geometric MIC; type: cell-based, Enterococcus faecium and Enterococcus faecalis; conditions: enterococci, 24-hour incubation

Structure (SMILES)	MIC [1] [µg/mL]	MIC [2] [µg/mL]	MIC [3] [µg/mL]	MIC [4] [µg/mL]	MIC [5] [µg/mL]	MIC (Entercoccus faecium 276) [µg/mL]	MIC [6] [µg/mL]	MIC [7] [µg/mL]	MIC [8] [µg/mL]	MIC [9] [µg/mL]	MIC [10] [µg/mL]	MIC [11] [µg/mL]	MIC [12] [µg/mL]	MIC [13] [µg/mL]	MIC (Escherichia coli EC14) [µg/mL]	MIC [14] [µg/mL]	MIC [15] [µg/mL]	MIC [16] [µg/mL]	MIC (Entercoccus faecium 2041) [µg/mL]	MIC [17] [µg/mL]	also measured
CNC(CC(C)C)C(=O)NC1C(=O)NC(CC(N)=O)C(=O)NC2C(=O)NC3C(=O)NC(C(=O)NC(C(=O)O)c4cc(O)cc(O)c4-c4cc3ccc4O)C(OC3CC(C)(NCc4ccc(-c5ccc([N+](=O)[O-])cc5)cc4)C(O)C(C)O3)c3ccc(c(Cl)c3)Oc3cc2cc(c3OC2OC(CO)C(O)C(O)C2OC2CC(C)(NCc3ccc(-c4ccc([N+](=O)[O-])cc4)cc3)C(O)C(C)O2)Oc2ccc(cc2Cl)C1O (stereo not drawn) [Compound 263]	1 (≈ 0.496 µM)	1 (≈ 0.496 µM)	1 (≈ 0.496 µM)	0.5 (≈ 0.248 µM)	1 (≈ 0.496 µM)	0.5 (≈ 0.248 µM)	≤ 0.06	1 (≈ 0.496 µM)	0.5 (≈ 0.248 µM)	0.25 (≈ 0.124 µM)	2 (≈ 0.993 µM)	≤ 0.06	≤ 0.06	> 64	65 (≈ 32.3 µM)	≤ 0.06	8 (≈ 3.97 µM)	8 (≈ 3.97 µM)	≤ 0.06	4 (≈ 1.99 µM)	MIC [18]: 16 µg/mL (≈ 7.94 µM); MIC (Entercoccus faecium 180): ≤ 0.06 µg/mL; mean geometric MIC, Vancomycin Sensitive Strains [19]: 0.29 µg/mL; mean geometric MIC, Vancomycin Resistant Strains [20]: 1.7 µg/mL
CC(C)CC(C(=O)NC1C(=O)NC(CC(N)=O)C(=O)NC2C(=O)NC3C(=O)NC(C(=O)NC(C(=O)O)c4cc(O)cc(O)c4-c4cc3ccc4O)C(OC3CC(C)(N)C(O)C(C)O3)c3ccc(c(Cl)c3)Oc3cc2cc(c3OC2OC(CO)C(O)C(O)C2OC2CC(C)(NCc3ccc4c(c3)OCO4)C(O)C(C)O2)Oc2ccc(cc2Cl)C1O)N(C)Cc1ccc2c(c1)OCO2 (stereo not drawn) [Compound 265]	0.5 (≈ 0.269 µM)	0.5 (≈ 0.269 µM)	2 (≈ 1.07 µM)	0.5 (≈ 0.269 µM)	2 (≈ 1.07 µM)	0.5 (≈ 0.269 µM)	≤ 0.06	2 (≈ 1.07 µM)	0.5 (≈ 0.269 µM)	0.5 (≈ 0.269 µM)	2 (≈ 1.07 µM)	≤ 0.06	≤ 0.06	> 64	> 64	≤ 0.06	1 (≈ 0.537 µM)	1 (≈ 0.537 µM)	0.25 (≈ 0.134 µM)	4 (≈ 2.15 µM)	MIC [18]: 8 µg/mL (≈ 4.3 µM); MIC (Entercoccus faecium 180): 8 µg/mL (≈ 4.3 µM); mean geometric MIC, Vancomycin Sensitive Strains [19]: 0.87 µg/mL; mean geometric MIC, Vancomycin Resistant Strains [20]: 54 µg/mL
CC(C)CC(C(=O)NC1C(=O)NC(CC(N)=O)C(=O)NC2C(=O)NC3C(=O)NC(C(=O)NC(C(=O)O)c4cc(O)cc(O)c4-c4cc3ccc4O)C(OC3CC(C)(N)C(O)C(C)O3)c3ccc(c(Cl)c3)Oc3cc2cc(c3OC2OC(CO)C(O)C(O)C2OC2CC(C)(NCc3ccc(Oc4ccc([N+](=O)[O-])cc4)cc3)C(O)C(C)O2)Oc2ccc(cc2Cl)C1O)N(C)Cc1ccc(Oc2ccc([N+](=O)[O-])cc2)cc1 (stereo not drawn) [Compound 267]	1 (≈ 0.489 µM)	1 (≈ 0.489 µM)	0.5 (≈ 0.244 µM)	0.5 (≈ 0.244 µM)	2 (≈ 0.977 µM)	1 (≈ 0.489 µM)	≤ 0.06	1 (≈ 0.489 µM)	1 (≈ 0.489 µM)	0.25 (≈ 0.122 µM)	0.5 (≈ 0.244 µM)	≤ 0.06	0.125 (≈ 0.0611 µM)	> 64	> 64	≤ 0.06	4 (≈ 1.95 µM)	4 (≈ 1.95 µM)	0.25 (≈ 0.122 µM)	4 (≈ 1.95 µM)	MIC [18]: 16 µg/mL (≈ 7.82 µM); MIC (Entercoccus faecium 180): 0.25 µg/mL (≈ 0.122 µM); mean geometric MIC, Vancomycin Sensitive Strains [19]: 0.22 µg/mL; mean geometric MIC, Vancomycin Resistant Strains [20]: 2.8 µg/mL
COc1cc(CNC2(C)CC(OC3C(Oc4c5cc6cc4Oc4ccc(cc4Cl)C(OC4CC(C)(N)C(O)C(C)O4)C4NC(=O)C(NC(=O)C6NC(=O)C(CC(N)=O)NC(=O)C(NC(=O)C(CC(C)C)N(C)Cc6ccc(OCc7ccccc7)c(OC)c6)C(O)c6ccc(c(Cl)c6)O5)c5ccc(O)c(c5)-c5c(O)cc(O)cc5C(C(=O)O)NC4=O)OC(CO)C(O)C3O)OC(C)C2O)ccc1OCc1ccccc1 (stereo not drawn) [Compound 268]	2 (≈ 0.978 µM)	4 (≈ 1.96 µM)	2 (≈ 0.978 µM)	2 (≈ 0.978 µM)	4 (≈ 1.96 µM)	2 (≈ 0.978 µM)	0.5 (≈ 0.244 µM)	1 (≈ 0.489 µM)	2 (≈ 0.978 µM)	1 (≈ 0.489 µM)	4 (≈ 1.96 µM)	≤ 0.06	0.25 (≈ 0.122 µM)	> 64	> 64	≤ 0.06	4 (≈ 1.96 µM)	4 (≈ 1.96 µM)	1 (≈ 0.489 µM)	1 (≈ 0.489 µM)	MIC [18]: 8 µg/mL (≈ 3.91 µM); MIC (Entercoccus faecium 180): 0.5 µg/mL (≈ 0.244 µM); mean geometric MIC, Vancomycin Sensitive Strains [19]: 0.87 µg/mL; mean geometric MIC, Vancomycin Resistant Strains [20]: 6.7 µg/mL
CC(C)CC(C(=O)NC1C(=O)NC(CC(N)=O)C(=O)NC2C(=O)NC3C(=O)NC(C(=O)NC(C(=O)O)c4cc(O)cc(O)c4-c4cc3ccc4O)C(OC3CC(C)(N)C(O)C(C)O3)c3ccc(c(Cl)c3)Oc3cc2cc(c3OC2OC(CO)C(O)C(O)C2OC2CC(C)(NCc3cccc4c3OCO4)C(O)C(C)O2)Oc2ccc(cc2Cl)C1O)N(C)Cc1cccc2c1OCO2 (stereo not drawn) [Compound 269]	0.5 (≈ 0.269 µM)	1 (≈ 0.537 µM)	2 (≈ 1.07 µM)	0.5 (≈ 0.269 µM)	0.25 (≈ 0.134 µM)	0.125 (≈ 0.0672 µM)	≤ 0.06	1 (≈ 0.537 µM)	0.25 (≈ 0.134 µM)	0.25 (≈ 0.134 µM)	4 (≈ 2.15 µM)	≤ 0.06	0.125 (≈ 0.0672 µM)	> 64	> 64	≤ 0.06	4 (≈ 2.15 µM)	4 (≈ 2.15 µM)	0.125 (≈ 0.0672 µM)	8 (≈ 4.3 µM)	MIC [18]: 8 µg/mL (≈ 4.3 µM); MIC (Entercoccus faecium 180): 4 µg/mL (≈ 2.15 µM); mean geometric MIC, Vancomycin Sensitive Strains [19]: 1.1 µg/mL; mean geometric MIC, Vancomycin Resistant Strains [20]: 38 µg/mL
CC(C)CC(C(=O)NC1C(=O)NC(CC(N)=O)C(=O)NC2C(=O)NC3C(=O)NC(C(=O)NC(C(=O)O)c4cc(O)cc(O)c4-c4cc3ccc4O)C(OC3CC(C)(N)C(O)C(C)O3)c3ccc(c(Cl)c3)Oc3cc2cc(c3OC2OC(CO)C(O)C(O)C2OC2CC(C)(NCc3ccc(Cc4ccccc4)cc3)C(O)C(C)O2)Oc2ccc(cc2Cl)C1O)N(C)Cc1ccc(Cc2ccccc2)cc1 (stereo not drawn) [Compound 270]	2 (≈ 1.02 µM)	2 (≈ 1.02 µM)	1 (≈ 0.512 µM)	1 (≈ 0.512 µM)	1 (≈ 0.512 µM)	1 (≈ 0.512 µM)	≤ 0.06	0.25 (≈ 0.128 µM)	0.5 (≈ 0.256 µM)	0.25 (≈ 0.128 µM)	0.5 (≈ 0.256 µM)	≤ 0.06	≤ 0.06	> 64	> 64	≤ 0.06	2 (≈ 1.02 µM)	2 (≈ 1.02 µM)	0.5 (≈ 0.256 µM)	1 (≈ 0.512 µM)	MIC [18]: 4 µg/mL (≈ 2.05 µM); MIC (Entercoccus faecium 180): 0.25 µg/mL (≈ 0.128 µM); mean geometric MIC, Vancomycin Sensitive Strains [19]: 0.66 µg/mL; mean geometric MIC, Vancomycin Resistant Strains [20]: 2.8 µg/mL
CC(C)CC(C(=O)NC1C(=O)NC(CC(N)=O)C(=O)NC2C(=O)NC3C(=O)NC(C(=O)NC(C(=O)O)c4cc(O)cc(O)c4-c4cc3ccc4O)C(OC3CC(C)(N)C(O)C(C)O3)c3ccc(c(Cl)c3)Oc3cc2cc(c3OC2OC(CO)C(O)C(O)C2OC2CC(C)(NCc3cccc(Oc4ccccc4)c3)C(O)C(C)O2)Oc2ccc(cc2Cl)C1O)N(C)Cc1cccc(Oc2ccccc2)c1 (stereo not drawn) [Compound 271]	1 (≈ 0.511 µM)	1 (≈ 0.511 µM)	1 (≈ 0.511 µM)	2 (≈ 1.02 µM)	2 (≈ 1.02 µM)	1 (≈ 0.511 µM)	0.5 (≈ 0.256 µM)	0.5 (≈ 0.256 µM)	0.5 (≈ 0.256 µM)	1 (≈ 0.511 µM)	2 (≈ 1.02 µM)	≤ 0.06	0.125 (≈ 0.0639 µM)	> 64	> 64	≤ 0.06	2 (≈ 1.02 µM)	2 (≈ 1.02 µM)	2 (≈ 1.02 µM)	1 (≈ 0.511 µM)	MIC [18]: 2 µg/mL (≈ 1.02 µM); MIC (Entercoccus faecium 180): 2 µg/mL (≈ 1.02 µM); mean geometric MIC, Vancomycin Sensitive Strains [19]: 0.33 µg/mL; mean geometric MIC, Vancomycin Resistant Strains [20]: 5.7 µg/mL

From patent publication US5840684A, “Glycopeptide antibiotic derivatives” (Eli Lilly and Company, priority 1995, dated 1998)
